Inhibition data for 17 compounds are collected here from patent publication US8273754B2, “Substituted 1H-pyrazolo[3,4-D]pyrimidine-6-amine compounds” (ArQule, Inc., priority 2008, dated 2012).

For the test, the system named is cancer cells. As to the kind of experiment: MTS cell growth inhibition assay (72 hours). It counts as cell-based. How it is done: Cells were maintained at 37° C., 5% CO2 in DMEM media supplemented with 1% fetal bovine serum, penicillin/streptomycin and fungizone (Invitrogen). Cells were seeded into 96-well tissue culture plates at 3000 per well and cultured at 37° C. for 18 hours. Test compounds were dissolved and diluted to 300× in DMSO then further diluted 1:40 in DMEM before addition to cells (1:7.5 dilution). Cells were incubated with test compounds for 72 hours followed by incubation with tetrazolium compound (3-(4,5-dimethylthiazol-2-yl)-5-(3-carboxymethoxyphenyl)-2-(4-sulfophenyl)-2H-tetrazolium, inner salt; MTS) and the electron coupling reagent, phenazine methosulfate (PMS) for 4 hours. […] The ability of compounds to inhibit cell growth in this assay is correlated with the reduction of dehydrogenase enzyme activity found in metabolically active cells. The measurement of the absorbance of the formazan was assessed using an ENVISION™ (Perkin Elmer) microplate reader at 492 nm. The calculated IC50 value is the concentration of the test compound that causes a 50% decrease in the absorbance. […] A=>79% inhibition, B=>50 to 79% inhibition, C=<50% inhibition.

The mark [1] stands for this setting: Homo sapiens, DLD-1, 72 h, DLD-1 cells, read-out: DLD-1 MTS 72 hr at 10 μM.
Where [2] appears, read: Homo sapiens, KATO III, 72 h, KATO III cells, read-out: KATO III MTS 72 hr at 10 μM.
Setting [3] is: Homo sapiens, MDA-MB-231, 72 h, MDA-MB-231 cells, read-out: MDA-MB-231 MTS 72 hr at 10 μM.
The mark [4] stands for this setting: Homo sapiens, NCI-H1299, 72 h, NCI-H1299 cells, read-out: NCI-H1299 MTS 72 hr at 10 μM.
The mark [5] stands for this setting: PaCa-2, 72 h, PACA-2 cells, read-out: PACA-2 MTS 72 hr at 10 μM.

Where two headings read alike, the source gives them in different places.

For `Nc1nc(NC2Cc3ccccc3N(S(=O)(=O)c3cccc(NC(=O)Nc4c(F)cc(Br)cc4F)c3)C2)c2cn[nH]c2n1` (stereo not shown) [Compound 206, 1-[3-({3-[(6-amino-1H-pyrazolo[3,4-d]pyrimidin-4-yl)amino]-3,4-dihydroquinolin-1(2H)-yl}sulfonyl)phenyl]-3-(4-bromo-2,6-difluorophenyl)urea], the inhibition at 10 µM reads like this: under setting [1], below 50%; under setting [2], 50 to 79%; under setting [3], below 50%; under setting [4], below 50%; under setting [5], 50 to 79%.
As for `Nc1nc(NC2Cc3ccccc3N(C(=O)c3cc(F)cc(F)c3F)C2)c2cn[nH]c2n1` (stereo not shown) [Compound 92, (3-(6-amino-1H-pyrazolo[3,4-d]pyrimidin-4-ylamino)-3,4-dihydroquinolin-1(2H)-yl)(2,3,5-trifluorophenyl)methanone], the inhibition at 10 µM is above 79% under setting [1]; above 79% under setting [2]; above 79% under setting [3]; 50 to 79% under setting [4]; above 79% under setting [5].
Turning to `Cc1ccc(CNC(=O)N2CC(Nc3nc(N)nc4[nH]ncc34)Cc3ccccc32)cc1` (stereo not shown) [Compound 110, 3-(6-amino-1H-pyrazolo[3,4-d]pyrimidin-4-ylamino)-N-(4-methylbenzyl)-3,4-dihydroquinoline-1(2H)-carboxamide], the inhibition at 10 µM under setting [1] was below 50%; the inhibition at 10 µM under setting [2] was below 50%; the inhibition at 10 µM under setting [3] is below 50%; the inhibition at 10 µM under setting [4] was below 50%; the inhibition at 10 µM under setting [5] was below 50%.
With `Nc1nc(NC2Cc3ccccc3N(Cc3ccccc3Oc3ccccc3)C2)c2cn[nH]c2n1` (stereo not shown) [Compound 149, N4-[1-(2-phenoxybenzyl)-1,2,3,4-tetrahydroquinolin-3-yl]-1H-pyrazolo[3,4-d]pyrimidine-4,6-diamine], the inhibition at 10 µM by setting is: under setting [1], above 79%; under setting [2], 50 to 79%; under setting [3], below 50%; under setting [4], below 50%; under setting [5], below 50%.
Take `COc1ccc(F)c(CN2CC(Nc3nc(N)nc4[nH]ncc34)Cc3ccccc32)c1` (stereo not shown) [Compound 142, N4-[1-(2-fluoro-5-methoxybenzyl)-1,2,3,4-tetrahydroquinolin-3-yl]-1H-pyrazolo[3,4-d]pyrimidine-4,6-diamine]: the inhibition at 10 µM under setting [1] was below 50%; the inhibition at 10 µM under setting [2] was in the range of 50 to 79%; the inhibition at 10 µM under setting [3] was below 50%; the inhibition at 10 µM under setting [4] was below 50%; the inhibition at 10 µM under setting [5] is above 79%.
Regarding `Nc1nc(NC2Cc3ccccc3N(S(=O)(=O)c3cccc(NC(=O)Nc4ccc5c(c4)CCC5)c3)C2)c2cn[nH]c2n1` (stereo not shown) [Compound 214, 1-[3-({3-[(6-amino-1H-pyrazolo[3,4-d]pyrimidin-4-yl)amino]-3,4-dihydroquinolin-1(2H)-yl}sulfonyl)phenyl]-3-(2,3-dihydro-1H-inden-5-yl)urea], the inhibition at 10 µM runs as follows: under setting [1], above 79%; under setting [2], above 79%; under setting [3], above 79%; under setting [4], 50 to 79%; under setting [5], above 79%.
With `Nc1nc(NC2Cc3ccccc3N(S(=O)(=O)c3ccc4ccccc4c3)C2)c2cn[nH]c2n1` (stereo not shown) [Compound 34, N4-(1-(naphthalen-2-ylsulfonyl)-1,2,3,4-tetrahydroquinolin-3-yl)-1H-pyrazolo[3,4-d]pyrimidine-4,6-diamine], the inhibition at 10 µM is below 50% under setting [1]; below 50% under setting [2]; below 50% under setting [3]; below 50% under setting [4]; below 50% under setting [5].
`Nc1nc(NC2Cc3ccccc3N(S(=O)(=O)c3ccc(OC(F)(F)F)cc3)C2)c2cn[nH]c2n1` (stereo not shown) [Compound 68, N4-(1-(4-(trifluoromethoxy)phenylsulfonyl)-1,2,3,4-tetrahydroquinolin-3-yl)-1H-pyrazolo[3,4-d]pyrimidine-4,6-diamine]: the inhibition at 10 µM runs as follows: under setting [1], below 50%; under setting [2], below 50%; under setting [3], below 50%; under setting [4], below 50%; under setting [5], below 50%.
On to `COc1ccc(-c2cccc(S(=O)(=O)N3CC(Nc4nc(N)nc5[nH]ncc45)Cc4ccccc43)c2)cc1` (stereo not shown) [Compound 63, N4-(1-(4′-methoxybiphenyl-3-ylsulfonyl)-1,2,3,4-tetrahydroquinolin-3-yl)-1H-pyrazolo[3,4-d]pyrimidine-4,6-diamine], for which the inhibition at 10 µM under setting [1] lay within 50 to 79%; the inhibition at 10 µM under setting [2] was above 79%; the inhibition at 10 µM under setting [3] was below 50%; the inhibition at 10 µM under setting [4] fell in the range of 50 to 79%; the inhibition at 10 µM under setting [5] was in the range of 50 to 79%.
For the compound `Nc1nc(NC2Cc3ccccc3N(Cc3ccc(-c4cccs4)cc3)C2)c2cn[nH]c2n1` (stereo not shown) [Compound 136, N4-{1-[4-(2-thienyl)benzyl]-1,2,3,4-tetrahydroquinolin-3-yl}-1H-pyrazolo[3,4-d]pyrimidine-4,6-diamine], the inhibition at 10 µM is above 79% under setting [1]; above 79% under setting [2]; below 50% under setting [3]; below 50% under setting [4]; below 50% under setting [5].
Consider `Nc1nc(NC2Cc3ccccc3N(C(=O)Nc3ccc(C(F)(F)F)cc3)C2)c2cn[nH]c2n1` (stereo not shown) [Compound 117, 3-(6-amino-1H-pyrazolo[3,4-d]pyrimidin-4-ylamino)-N-(4-(trifluoromethyl)phenyl)-3,4-dihydroquinoline-1(2H)-carboxamide], for which the inhibition at 10 µM reads like this: under setting [1], below 50%; under setting [2], below 50%; under setting [3], below 50%; under setting [4], below 50%; under setting [5], below 50%.
Consider `Nc1nc(NC2Cc3ccccc3N(S(=O)(=O)c3ccc(NC(=O)Nc4ccc(C(F)(F)F)cc4)cc3)C2)c2cn[nH]c2n1` (stereo not shown) [Compound 188, 1-[4-({3-[(6-amino-1H-pyrazolo[3,4-d]pyrimidin-4-yl)amino]-3,4-dihydroquinolin-1(2H)-yl}sulfonyl)phenyl]-3-[4-(trifluoromethyl)phenyl]urea], for which the inhibition at 10 µM is, setting by setting: under setting [1], above 79%; under setting [2], above 79%; under setting [3], above 79%; under setting [4], above 79%; under setting [5], above 79%.
For the compound `N#Cc1ccc(S(=O)(=O)N2CC(Nc3nc(N)nc4[nH]ncc34)Cc3ccccc32)cc1` (stereo not shown) [Compound 30, 4-(3-(6-amino-1H-pyrazolo[3,4-d]pyrimidin-4-ylamino)-3,4-dihydroquinolin-1(2H)-ylsulfonyl)benzonitrile], the inhibition at 10 µM under setting [1] was below 50%; the inhibition at 10 µM under setting [2] is below 50%; the inhibition at 10 µM under setting [3] was below 50%; the inhibition at 10 µM under setting [4] was below 50%; the inhibition at 10 µM under setting [5] was below 50%.
As to `Cc1ccccc1NC(=O)Nc1cccc(S(=O)(=O)N2CC(Nc3nc(N)nc4[nH]ncc34)Cc3ccccc32)c1` (stereo not shown) [Compound 213, 1-[3-({3-[(6-amino-1H-pyrazolo[3,4-d]pyrimidin-4-yl)amino]-3,4-dihydroquinolin-1(2H)-yl}sulfonyl)phenyl]-3-(2-methylphenyl)urea], the inhibition at 10 µM under setting [1] is below 50%; the inhibition at 10 µM under setting [2] is above 79%; the inhibition at 10 µM under setting [3] is below 50%; the inhibition at 10 µM under setting [4] was below 50%; the inhibition at 10 µM under setting [5] is 50 to 79%.
Consider `CC(C)(C)CC(=O)N1CC(Nc2nc(N)nc3[nH]ncc23)Cc2ccccc21` (stereo not shown) [Compound 94, 1-(3-(6-amino-1H-pyrazolo[3,4-d]pyrimidin-4-ylamino)-3,4-dihydroquinolin-1(2H)-yl)-3,3-dimethylbutan-1-one], for which the inhibition at 10 µM by setting is: under setting [1], below 50%; under setting [2], below 50%; under setting [3], below 50%; under setting [4], below 50%; under setting [5], below 50%.
On to `COc1cc(CN2CC(Nc3nc(N)nc4[nH]ncc34)Cc3ccccc32)ccc1F` (stereo not shown) [Compound 146, N4-[1-(4-fluoro-3-methoxybenzyl)-1,2,3,4-tetrahydroquinolin-3-yl]-1H-pyrazolo[3,4-d]pyrimidine-4,6-diamine], for which the inhibition at 10 µM under setting [1] was above 79%; the inhibition at 10 µM under setting [2] was above 79%; the inhibition at 10 µM under setting [3] was above 79%; the inhibition at 10 µM under setting [4] lay within 50 to 79%; the inhibition at 10 µM under setting [5] was above 79%.
Regarding `Cc1c(C(=O)N2CC(Nc3nc(N)nc4[nH]ncc34)Cc3ccccc32)oc2ccccc12` (stereo not shown) [Compound 91, (3-(6-amino-1H-pyrazolo[3,4-d]pyrimidin-4-ylamino)-3,4-dihydroquinolin-1(2H)-yl)(3-methylbenzofuran-2-yl)methanone], the inhibition at 10 µM reads like this: under setting [1], 50 to 79%; under setting [2], above 79%; under setting [3], above 79%; under setting [4], below 50%; under setting [5], above 79%.
